Test results: ChEMBL document CHEMBL3862033 (J Med Chem, 2016)
The source made the active and inactive calls. The calls are words filed in the database; no cut-off is given here.

Assays:
[1] = molecular target: T1, Adenosine receptor A1 (Homo sapiens) (UniProt P30542); assay: Displacement of [3H]N6-phenylisopropyladenosine from recombinant human A1AR expressed in CHO cell membranes at 10 uM after 60 mins by liquid scintillation counting method relative to control
T1 sequence (whole entry): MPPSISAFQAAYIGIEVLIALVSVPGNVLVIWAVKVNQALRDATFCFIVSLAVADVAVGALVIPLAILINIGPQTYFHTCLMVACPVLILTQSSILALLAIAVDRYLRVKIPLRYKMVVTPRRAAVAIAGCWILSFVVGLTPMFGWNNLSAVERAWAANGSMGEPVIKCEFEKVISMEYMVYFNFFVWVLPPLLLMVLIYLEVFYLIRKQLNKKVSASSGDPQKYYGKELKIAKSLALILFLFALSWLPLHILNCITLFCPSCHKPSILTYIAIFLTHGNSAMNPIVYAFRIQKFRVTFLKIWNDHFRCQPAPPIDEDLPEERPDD

[2] = molecular target: T2, 5-hydroxytryptamine receptor 2C (Homo sapiens) (UniProt P28335); assay: Displacement of [3H]mesulergine from human 5-HT2CR expressed in Flp-In HEK cell membranes at 10 uM incubated for 90 mins under dark condition by microbeta scintillation counting method relative to control; conditions: HEK293
T2 sequence (whole entry): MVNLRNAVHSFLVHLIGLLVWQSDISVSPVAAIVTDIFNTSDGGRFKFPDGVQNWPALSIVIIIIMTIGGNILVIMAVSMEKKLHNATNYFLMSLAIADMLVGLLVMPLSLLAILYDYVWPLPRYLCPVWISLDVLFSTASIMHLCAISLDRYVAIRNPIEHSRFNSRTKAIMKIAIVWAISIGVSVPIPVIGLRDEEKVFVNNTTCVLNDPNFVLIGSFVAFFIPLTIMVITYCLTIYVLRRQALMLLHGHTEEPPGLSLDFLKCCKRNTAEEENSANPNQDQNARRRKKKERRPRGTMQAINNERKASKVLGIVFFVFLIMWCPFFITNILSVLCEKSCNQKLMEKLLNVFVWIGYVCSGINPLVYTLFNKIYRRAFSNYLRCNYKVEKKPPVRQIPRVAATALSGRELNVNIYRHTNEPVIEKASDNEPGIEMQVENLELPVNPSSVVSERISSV

[3] = molecular target: T3, 5-hydroxytryptamine receptor 2A (Homo sapiens, UniProt P28223); assay: Displacement of [3H]ketanserin from human 5-HT2A receptor expressed in HEK-T cell membranes incubated for 90 mins under dark condition by microbeta scintillation counting method
T3 sequence (P28223 whole entry): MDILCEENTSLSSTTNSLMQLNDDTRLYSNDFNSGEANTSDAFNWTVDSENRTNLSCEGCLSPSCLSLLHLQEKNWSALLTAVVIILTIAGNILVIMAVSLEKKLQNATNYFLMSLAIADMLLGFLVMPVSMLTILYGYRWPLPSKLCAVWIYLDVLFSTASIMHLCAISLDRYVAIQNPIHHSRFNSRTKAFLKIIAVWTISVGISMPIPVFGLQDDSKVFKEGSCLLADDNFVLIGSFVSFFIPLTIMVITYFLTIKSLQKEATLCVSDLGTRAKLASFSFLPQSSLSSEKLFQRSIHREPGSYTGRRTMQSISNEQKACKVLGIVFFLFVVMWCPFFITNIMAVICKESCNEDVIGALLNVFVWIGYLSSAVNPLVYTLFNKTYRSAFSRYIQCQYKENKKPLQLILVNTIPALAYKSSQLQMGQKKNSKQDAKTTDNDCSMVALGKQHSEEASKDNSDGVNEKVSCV

[4] = molecular target: T3, 5-hydroxytryptamine receptor 2A; assay: Displacement of [3H]ketanserin from human 5-HT2A receptor expressed in HEK-T cell membranes at 10 uM incubated for 90 mins under dark condition by microbeta scintillation counting method relative to control
[5] = molecular target: T4, 5-hydroxytryptamine receptor 3A (Homo sapiens) (UniProt P46098); assay: Displacement of [3H]GR65630 from human 5-HT3 receptor expressed in HEK-T cell membranes at 10 uM incubated for 90 mins under dark condition by microbeta scintillation counting method relative to control
T4 sequence (whole entry): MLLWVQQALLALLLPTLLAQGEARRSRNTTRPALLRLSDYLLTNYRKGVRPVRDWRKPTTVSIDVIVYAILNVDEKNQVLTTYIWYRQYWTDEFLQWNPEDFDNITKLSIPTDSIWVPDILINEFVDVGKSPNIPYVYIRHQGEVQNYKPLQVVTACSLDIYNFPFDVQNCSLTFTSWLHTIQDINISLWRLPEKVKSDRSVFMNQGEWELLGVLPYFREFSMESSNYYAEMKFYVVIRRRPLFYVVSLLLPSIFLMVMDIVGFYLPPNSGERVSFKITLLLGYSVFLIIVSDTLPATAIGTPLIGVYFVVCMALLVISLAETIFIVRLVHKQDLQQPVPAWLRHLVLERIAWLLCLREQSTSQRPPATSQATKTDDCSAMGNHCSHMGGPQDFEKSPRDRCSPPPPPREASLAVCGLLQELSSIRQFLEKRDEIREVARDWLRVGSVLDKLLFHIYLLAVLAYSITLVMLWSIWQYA

[6] = molecular target: Adenosine receptor A2a (Homo sapiens, UniProt P29274); assay: Displacement of [3 H]2-[p-(2-carboxyethyl)phenyl-ethylamino]-5'-N-ethylcarboxamidoadenosine from recombinant human adenosine receptor A2A expressed in HEK293 cell membranes at 10 uM after 60 mins by liquid scintillation counting method relative to control
Chain of Adenosine receptor A2a (P29274 whole entry): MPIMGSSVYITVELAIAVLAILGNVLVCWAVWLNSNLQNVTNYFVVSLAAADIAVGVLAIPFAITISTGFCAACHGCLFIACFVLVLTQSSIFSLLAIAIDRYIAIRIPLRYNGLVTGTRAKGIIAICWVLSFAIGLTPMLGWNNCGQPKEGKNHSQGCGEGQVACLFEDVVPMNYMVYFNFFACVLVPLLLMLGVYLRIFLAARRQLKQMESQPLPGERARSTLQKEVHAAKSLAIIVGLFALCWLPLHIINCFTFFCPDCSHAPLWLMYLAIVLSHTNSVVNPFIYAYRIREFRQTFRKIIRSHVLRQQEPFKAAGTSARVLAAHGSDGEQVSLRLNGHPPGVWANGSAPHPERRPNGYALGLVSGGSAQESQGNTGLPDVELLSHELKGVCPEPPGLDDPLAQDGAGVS

[7] = molecular target: 5-hydroxytryptamine receptor 1D (Homo sapiens) (UniProt P28221); assay: Displacement of [3H]5-CT from human 5-HT1D receptor expressed in HEK-T cell membranes at 10 uM incubated for 90 mins under dark condition by microbeta scintillation counting method relative to control
Chain of 5-hydroxytryptamine receptor 1D (Homo sapiens) (P28221 whole entry): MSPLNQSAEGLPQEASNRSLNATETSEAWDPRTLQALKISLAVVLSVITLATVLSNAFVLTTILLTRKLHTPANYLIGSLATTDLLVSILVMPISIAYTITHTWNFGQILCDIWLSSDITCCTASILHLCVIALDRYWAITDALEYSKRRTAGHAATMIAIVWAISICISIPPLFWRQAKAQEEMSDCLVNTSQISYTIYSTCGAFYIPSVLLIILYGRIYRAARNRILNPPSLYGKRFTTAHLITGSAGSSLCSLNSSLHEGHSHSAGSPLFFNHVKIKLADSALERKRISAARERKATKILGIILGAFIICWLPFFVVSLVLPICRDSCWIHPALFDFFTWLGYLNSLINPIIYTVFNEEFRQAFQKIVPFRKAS

[8] = molecular target: 5-hydroxytryptamine receptor 6 (Homo sapiens) (UniProt P50406); assay: Displacement of [3H]LSD from human 5-HT6 receptor expressed in HEK cell membranes at 10 uM incubated for 90 mins under dark condition by microbeta scintillation counting method relative to control; conditions: HEK293
Chain of 5-hydroxytryptamine receptor 6 (Homo sapiens) (P50406 whole entry): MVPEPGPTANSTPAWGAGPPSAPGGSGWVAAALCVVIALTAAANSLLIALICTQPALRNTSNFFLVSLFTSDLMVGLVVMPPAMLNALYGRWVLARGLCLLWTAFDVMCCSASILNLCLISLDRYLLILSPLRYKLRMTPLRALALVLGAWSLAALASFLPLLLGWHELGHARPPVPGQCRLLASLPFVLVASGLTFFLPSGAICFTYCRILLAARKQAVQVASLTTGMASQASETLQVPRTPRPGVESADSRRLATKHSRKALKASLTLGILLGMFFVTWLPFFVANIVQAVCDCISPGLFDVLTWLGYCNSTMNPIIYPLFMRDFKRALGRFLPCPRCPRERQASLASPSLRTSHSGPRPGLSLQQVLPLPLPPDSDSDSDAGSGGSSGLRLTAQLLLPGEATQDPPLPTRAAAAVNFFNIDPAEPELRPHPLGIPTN

[9] = molecular target: 5-hydroxytryptamine receptor 5A (Homo sapiens) (UniProt P47898); assay: Displacement of [3H]LSD from human 5-HT5A receptor expressed in Flp-In-CHO cell membranes incubated for 90 mins under dark condition by microbeta scintillation counting method relative to control; set-up: concentration or dose not given beside the values
Chain of 5-hydroxytryptamine receptor 5A (Homo sapiens) (P47898 whole entry): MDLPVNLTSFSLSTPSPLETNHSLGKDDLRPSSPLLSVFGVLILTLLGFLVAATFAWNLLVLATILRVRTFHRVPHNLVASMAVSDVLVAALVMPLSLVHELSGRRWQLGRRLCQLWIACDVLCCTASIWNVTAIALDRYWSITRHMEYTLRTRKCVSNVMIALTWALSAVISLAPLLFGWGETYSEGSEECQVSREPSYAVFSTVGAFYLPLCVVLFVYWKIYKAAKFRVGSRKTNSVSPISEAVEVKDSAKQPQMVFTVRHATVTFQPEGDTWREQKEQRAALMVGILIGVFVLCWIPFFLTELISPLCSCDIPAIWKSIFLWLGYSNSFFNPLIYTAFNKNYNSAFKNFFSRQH

[10] = molecular target: 5-hydroxytryptamine receptor 1E (Homo sapiens) (UniProt P28566); assay: Displacement of [3H]5-HT from human 5-HT1E receptor expressed in HEK cell membranes at 10 uM incubated for 90 mins under dark condition by microbeta scintillation counting method relative to control; conditions: HEK293
Chain of 5-hydroxytryptamine receptor 1E (Homo sapiens) (P28566 whole entry): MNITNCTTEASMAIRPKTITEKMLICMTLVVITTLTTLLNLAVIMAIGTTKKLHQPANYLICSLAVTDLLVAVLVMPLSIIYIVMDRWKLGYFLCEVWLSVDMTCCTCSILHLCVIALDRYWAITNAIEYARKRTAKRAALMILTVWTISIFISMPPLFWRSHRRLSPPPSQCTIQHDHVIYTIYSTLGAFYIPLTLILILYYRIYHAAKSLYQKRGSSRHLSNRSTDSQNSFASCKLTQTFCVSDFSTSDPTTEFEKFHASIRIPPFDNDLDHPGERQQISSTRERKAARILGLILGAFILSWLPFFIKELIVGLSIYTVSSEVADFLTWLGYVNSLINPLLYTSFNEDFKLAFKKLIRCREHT

[11] = molecular target: 5-hydroxytryptamine receptor 4 (Homo sapiens) (UniProt Q13639); assay: Displacement of [3H]GR113808 from human 5-HT4 receptor at 10 uM incubated for 90 mins under dark condition by microbeta scintillation counting method relative to control
Chain of 5-hydroxytryptamine receptor 4 (Homo sapiens) (Q13639 whole entry): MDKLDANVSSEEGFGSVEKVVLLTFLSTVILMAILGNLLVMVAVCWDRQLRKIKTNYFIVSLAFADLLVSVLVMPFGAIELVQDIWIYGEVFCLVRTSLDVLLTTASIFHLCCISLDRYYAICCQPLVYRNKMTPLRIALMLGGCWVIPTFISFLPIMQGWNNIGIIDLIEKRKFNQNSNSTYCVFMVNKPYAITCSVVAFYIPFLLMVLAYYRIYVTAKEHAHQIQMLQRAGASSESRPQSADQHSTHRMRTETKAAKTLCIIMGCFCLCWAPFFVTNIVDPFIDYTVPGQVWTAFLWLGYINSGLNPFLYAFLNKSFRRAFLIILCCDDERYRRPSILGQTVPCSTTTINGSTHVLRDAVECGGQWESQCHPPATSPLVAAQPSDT

[12] = molecular target: T5, 5-hydroxytryptamine receptor 1A (Homo sapiens) (UniProt P08908); assay: Displacement of [3H]WAY100635 from human 5-HT1AR expressed in CHO cell membranes at 10 uM incubated for 90 mins under dark condition by microbeta scintillation counting method relative to control
T5 sequence (whole entry): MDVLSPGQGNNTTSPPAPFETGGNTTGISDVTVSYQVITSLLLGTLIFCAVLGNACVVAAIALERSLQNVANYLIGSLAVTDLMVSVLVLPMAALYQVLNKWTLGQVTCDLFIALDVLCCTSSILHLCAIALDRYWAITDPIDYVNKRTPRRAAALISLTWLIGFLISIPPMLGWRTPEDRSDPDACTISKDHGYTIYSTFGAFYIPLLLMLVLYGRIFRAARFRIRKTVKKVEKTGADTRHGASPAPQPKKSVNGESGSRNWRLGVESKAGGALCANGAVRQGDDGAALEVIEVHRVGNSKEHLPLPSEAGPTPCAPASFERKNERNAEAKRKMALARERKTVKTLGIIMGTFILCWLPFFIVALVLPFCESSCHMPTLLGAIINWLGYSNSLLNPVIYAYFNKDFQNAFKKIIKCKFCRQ

[13] = molecular target: T6, 5-hydroxytryptamine receptor 2B (Homo sapiens, UniProt P41595); conditions: HEK293, at 10 µM
T6 sequence (P41595 whole entry): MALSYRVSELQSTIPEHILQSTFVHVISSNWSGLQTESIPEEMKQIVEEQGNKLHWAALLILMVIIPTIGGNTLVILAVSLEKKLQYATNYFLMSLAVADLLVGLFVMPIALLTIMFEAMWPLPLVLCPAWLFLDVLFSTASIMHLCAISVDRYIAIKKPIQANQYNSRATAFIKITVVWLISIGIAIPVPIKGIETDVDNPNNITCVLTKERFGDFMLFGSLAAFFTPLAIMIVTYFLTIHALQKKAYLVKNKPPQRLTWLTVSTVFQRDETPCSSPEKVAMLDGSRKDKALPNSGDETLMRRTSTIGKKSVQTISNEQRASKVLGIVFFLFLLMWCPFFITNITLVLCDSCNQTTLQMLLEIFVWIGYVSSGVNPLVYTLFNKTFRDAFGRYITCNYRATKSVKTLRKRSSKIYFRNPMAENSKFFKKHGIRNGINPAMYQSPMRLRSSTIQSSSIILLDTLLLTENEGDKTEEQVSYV

[14] = molecular target: 5-hydroxytryptamine receptor 7 (Homo sapiens) (UniProt P34969); assay: Displacement of [3H]LSD from human 5-HT7A receptor expressed in HEK cell membranes at 10 uM incubated for 90 mins under dark condition by microbeta scintillation counting method relative to control; conditions: HEK293
Chain of 5-hydroxytryptamine receptor 7 (Homo sapiens) (P34969 whole entry): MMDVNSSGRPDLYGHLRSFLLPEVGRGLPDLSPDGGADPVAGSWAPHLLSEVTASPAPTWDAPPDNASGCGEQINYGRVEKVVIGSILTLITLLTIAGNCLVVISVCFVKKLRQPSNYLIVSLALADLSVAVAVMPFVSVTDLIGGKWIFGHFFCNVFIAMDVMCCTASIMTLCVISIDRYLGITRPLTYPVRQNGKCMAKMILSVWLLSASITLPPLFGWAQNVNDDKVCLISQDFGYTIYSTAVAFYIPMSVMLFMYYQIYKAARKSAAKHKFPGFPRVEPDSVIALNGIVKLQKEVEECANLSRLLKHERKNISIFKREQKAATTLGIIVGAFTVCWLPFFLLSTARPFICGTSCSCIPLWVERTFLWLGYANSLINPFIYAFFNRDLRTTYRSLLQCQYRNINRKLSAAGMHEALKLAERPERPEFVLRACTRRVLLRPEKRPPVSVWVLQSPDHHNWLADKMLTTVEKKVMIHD

[15] = molecular target: 5-hydroxytryptamine receptor 1B (Homo sapiens) (UniProt P28222); assay: Displacement of [3H]5-CT from human 5-HT1BR expressed in HEK cell membranes at 10 uM incubated for 90 mins under dark condition by microbeta scintillation counting method relative to control; conditions: HEK293
Chain of 5-hydroxytryptamine receptor 1B (Homo sapiens) (P28222 whole entry): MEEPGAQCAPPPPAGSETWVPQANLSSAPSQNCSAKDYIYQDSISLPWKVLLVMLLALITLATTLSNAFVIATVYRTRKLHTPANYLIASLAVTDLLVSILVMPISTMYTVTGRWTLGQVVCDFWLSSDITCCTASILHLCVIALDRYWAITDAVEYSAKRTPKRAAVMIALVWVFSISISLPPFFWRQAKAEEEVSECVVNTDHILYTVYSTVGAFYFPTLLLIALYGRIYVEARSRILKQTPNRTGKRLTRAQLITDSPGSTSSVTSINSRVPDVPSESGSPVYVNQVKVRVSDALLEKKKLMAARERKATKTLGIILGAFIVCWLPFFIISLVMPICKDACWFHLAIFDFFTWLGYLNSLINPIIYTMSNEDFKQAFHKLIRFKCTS

[16] = molecular target: T7, Adenosine receptor A1 (Homo sapiens, UniProt P30542); assay: Displacement of [3H]N6-phenylisopropyladenosine from recombinant human A1AR expressed in CHO cell membranes after 60 mins by liquid scintillation counting method
T7 sequence (P30542 whole entry): T1 sequence (whole entry)

[17] = molecular target: T6, 5-hydroxytryptamine receptor 2B; assay: biochemical; type: cell-based, HEK293
[18] = molecular target: T8, Adenosine receptor A3 (Homo sapiens, UniProt P0DMS8); assay: Displacement of [125l]N 6-(4-amino-3-iodobenzyl)adenosine-5'-N-methyluronamide from recombinant human A3AR expressed in CHO cell membranes after 60 mins by gamma counting method
T8 sequence (P0DMS8 whole entry): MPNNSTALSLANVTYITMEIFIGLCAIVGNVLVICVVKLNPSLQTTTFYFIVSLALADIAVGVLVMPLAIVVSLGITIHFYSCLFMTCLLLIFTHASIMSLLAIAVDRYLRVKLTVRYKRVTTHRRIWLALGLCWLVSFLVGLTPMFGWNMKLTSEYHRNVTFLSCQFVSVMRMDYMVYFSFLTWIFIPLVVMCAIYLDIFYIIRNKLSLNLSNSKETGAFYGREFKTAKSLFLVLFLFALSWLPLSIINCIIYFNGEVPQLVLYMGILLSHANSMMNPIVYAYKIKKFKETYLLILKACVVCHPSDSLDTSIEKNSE

[19] = molecular target: T9, 5-hydroxytryptamine receptor 2C (Homo sapiens, UniProt P28335); assay: Displacement of [3H]mesulergine from human 5-HT2CR expressed in Flp-In HEK cell membranes incubated for 90 mins under dark condition by microbeta scintillation counting method; set-up: species or system HEK293
T9 sequence (P28335 whole entry): T2 sequence (whole entry)

Structure (SMILES)	inhibition [1] [%]	inhibition [2] [%]	Ki [3] [nM]	inhibition [4] [%]	inhibition [5] [%]	inhibition [6] [%]	inhibition [7] [%]	inhibition [8] [%]	inhibition [9]	inhibition [10] [%]	inhibition [11] [%]	inhibition [12] [%]	inhibition [13] [%]	inhibition [14] [%]	inhibition [15] [%]	Ki [16] [nM]	Ki [17] [nM]	Ki [18] [nM]	Ki [19] [nM]
Fc1ccc(C#Cc2nc(NCc3cccc(Cl)c3)c3nc[nH]c3n2)cc1F	< 10	11	> 10000	< 10	< 50	< 10	< 50	< 50	< 50%	< 50	< 50	< 50	> 50	< 50	< 50				
CC(=O)NCCNC(=O)[C@@]12C[C@@H]1[C@@H](n1cnc3c(NC(C4CC4)C4CC4)nc(Cl)nc31)[C@H](O)[C@@H]2O		> 50	> 10000	< 10	< 50	20	< 50	< 50	< 50%	< 50	< 50	< 50	> 50	< 50	< 50	397	332	1650	1700
CC(=O)NCCCNC(=O)[C@@]12C[C@@H]1[C@@H](n1cnc3c(NC(C4CC4)C4CC4)nc(Cl)nc31)[C@H](O)[C@@H]2O	46	> 50	> 10000	< 10	< 50	26	< 50	< 50	< 50%	< 50	< 50	< 50	> 50	< 50	< 50		534		2310
Clc1cccc(CNc2nc(Cl)nc3[nH]cnc23)c1	45	> 50	> 10000	26	< 50	37	< 50	< 50	< 50%	< 50	< 50	< 50	> 50	< 50	< 50		2160		

Other lines, results leading:

inhibition [1] [%]	inhibition [2] [%]	Ki [3] [nM]	inhibition [4] [%]	inhibition [5] [%]	inhibition [6] [%]	inhibition [7] [%]	inhibition [8] [%]	inhibition [9]	inhibition [10] [%]	inhibition [11] [%]	inhibition [12] [%]	inhibition [13] [%]	inhibition [14] [%]	inhibition [15] [%]	Ki [16] [nM]	Ki [17] [nM]	Ki [18] [nM]	Ki [19] [nM]	Structure (SMILES)
26	> 50	> 10000	< 10	< 50	< 10	< 50	< 50	< 50%	< 50	< 50	< 50	> 50	< 50	< 50		2100	1480	4300	CNC(=O)[C@@]12C[C@@H]1[C@@H](n1cnc3c(N(C)C)nc(Cl)nc31)[C@H](O)[C@@H]2O
11	> 50	> 10000	< 10	< 50	< 10	< 50	< 50	< 50%	< 50	< 50	< 50	> 50	< 50	< 50		4800		8100	CN(C)c1nc(Cl)nc2c1ncn2[C@H]1[C@H](O)[C@H](O)[C@]2(CO)C[C@H]12
	> 50	> 10000	< 10	< 50	< 10	< 50	< 50	Active	< 50	< 50	< 50	> 50	< 50	< 50		4700	1080	8000	CN(C)c1nc(Cl)nc2c1ncn2[C@H]1[C@H](O)[C@H](O)[C@]2(C(=O)O)C[C@H]12
